The source of these data is patent publication US20230339949A1, “HETEROCYCLIC SUBSTITUTED FUSED y-CARBOLINE DERIVATIVE, PREPARATION METHOD THEREFOR, INTERMEDIATE THEREOF AND USE THEREOF” (SHUJING BIOPHARMA CO., LTD, priority 2020, published 2023).

Where two headings read alike, the source gives them in different places.

For one assay, the target named is T1, D2S receptor (Homo sapiens, UniProt P14416).
T1 construct: expressed in transfected cells
Put plainly: Functional activity test on D2S receptor, cAMP detection (Gi antagonist test). Format: cell-based. The note with it: cultured HEK293/D2S cells, forskolin + dopamine EC90. An excerpt:
(§1) The antagonistic effects of the compounds of the present disclosure on D2L and D2S receptors were detected by cyclic adenosine monophosphate (cAMP) detection method at cell-level.
(§2) • (1) Test compound: compounds of the embodiment of the present disclosure, self-made. • (2) Control compound: dopamine hydrochloride (Sigma, H8502), (+)-Butaclamol hydrochloride (Sigma, D033). • (3) Stable cell line:
(§3) • (1) Preparation of test compounds: the compounds of the embodiments of the present disclosure were respectively dissolved in DMSO to prepare 10 mM mother liquor, and the mother liquor was stored in the nitrogen cabinet for later use. • (2) Preparation of control compound: the control compound was dissolved in DMSO to prepare 10 mM mother liquor, and the mother liquor was repackaged and stored in the refrigerator at −80° C. for later use. • (3) IBMX was dissolved in DMSO to prepare 0.5 M stock solution and the stock solution was cryopreserved at −80° C. • (4) Forskolin was dissolved in DMSO to prepare 1 mM stock solution and the stock solution was cryopreserved at −80° C. for later use. • (5) Experimental buffer: 5× stimulation buffer was diluted to 1× with ddH2O and IBMX with a final concentration of 0.5 mM was added thereto, and the solution was mixed well for later use.
(§4) • (1) Preparation of compounds: the test compounds and positive control compound (+)-Butaclamol hydrochloride were diluted gradient using Bravo in the compound plate (Greiner-781280), and the initial concentration of working solution was 20 μM, and the working solution was diluted at 4-fold for 10 concentrations and centrifuged at 1000 rpm for 1 minute for later use. • (2) Cryopreserved D2L cells: cells was taken out from the liquid nitrogen tank and thaw in a water bath at 37° C., and the cell suspension was transferred to a centrifuge tube containing HBSS buffer, and centrifuged at 750 rpm for 5 minutes.
(§5) Cultured D2S cells: after absorbing the culture medium, the cells were washed with 3 mL PBS, sucked out, digested with 0.05% Trypsin for 3 min, terminated with equal volume of culture medium, transferred to centrifuge tube, and centrifuged at 750 rpm for 5 minutes. After absorbing the liquid, the centrifuge tube was added with a buffer solution containing HBSS and re-suspend, and centrifuged at 750 rpm for 5 minutes. • (3) The supernatant was discarded, and the precipitate was re-suspended with proper amount of experimental buffer, and 20 μL was taken for cell counting. • (4) Appropriate amount of cell suspension was removed, and the cell suspension was diluted to 2×10^5 cells/mL with experimental buffer, and the cell plate (PerkinElmer-6008280) was added with 5 μL/well cell suspension, and centrifuged at 1000 rpm for 1 minute. • (5) 5 μL/well was transferred to the cell plate with Bravo, and the cell plate was centrifuged at 1000 rpm for 1 minute, then the cell plate was closed and incubated at room temperature for 15 minutes. • (6) Forskolin was transferred to the cell plate with Tecan-D300e, and Dopamine hydrochloride with a final concentration of EC90 was transferred to the cell plate. • (7) The cell plate was centrifuged at 1000 rpm for 1 minute, then sealed and incubated at room temperature for 45 minutes. • (8) Standard curve: cAMP with the stock solution concentration of 2848 nM was diluted 4-fold continuously at 8 points according to the initial maximum concentration of 712 nM, and 10 μL/well was taken out to add to the cell plate. • (9) 10 μL/well of detection solution containing cAMP-d2 and Anti-cAMP-Cryptate (diluted with pyrolysis buffer at 1:20) was added to the cell plate, and the cell plate was centrifuged at 1000 rpm for 1 minute, and incubated at room temperature without light for 1 hour. • (10) Detection: the cell plate was centrifuged at 1000 rpm for 1 minute, and the plate was read with Envision (excitation light 340 nm, emission light 620 nm and 665 nm). […]

A further assay concerns the target T2, D2L receptor (Homo sapiens, UniProt P14416).
T2 construct: expressed in transfected cells
Put plainly: Functional activity test on D2L receptor, cAMP detection (Gi antagonist test). It is filed as cell-based. To be noted: cryopreserved CHO-K1/D2L/Gα15 cells, forskolin + dopamine EC90.
Description: as §1, §2, §3, §4, §5

Assay [1] concerns MK-801 induced hyperactivity behavior. Put plainly: MK-801 induced hyperactivity behavior in mice. Format: in vivo, ICR mice. To be noted: for ED50: Mus musculus, read-out: ED50 (half effective dose). As for the experimental part: The efficacy of the compounds of the present disclosure was evaluated by high activity model of mice induced by intraperitoneal injection of MK-801.
Experimental animals: ICR mice, male, 8 mice/group, Spelford (Beijing) Biotechnology Co., Ltd.
Preparation of drug: the test compounds were taken, and pure water was added, and ultrasonication was performed.
Administration route and method: gavage administration, 10 mL/kg (body weight).
Administration frequency and duration: single dose.
Animals were stratified by body weight and then randomly divided into blank group, model group, and administration group, and detailed information of administration is shown in the following table.
Mice were stratified according to body weight and then randomly divided into model group, blank group and each administration group. One hour after the gavage administration of solvent or drug, 0.3 mg/kg MK-801 was injected intraperitoneally (the blank group was injected with the same volume of physiological saline), and then the mice were put into an independent activity box (a black polyethylene box with the specification of 29 cm×29 cm×30 cm) for video recording for 60 minutes, and video analysis was performed at the end of the recording to evaluate the activity of the mice.
The experimental data were expressed as x±SD, and SPSS statistical software was used to test the homogeneity of variance. If the variance was homogeneous, single factor analysis of variance was performed, and Dunnett t test is used for pairwise comparison. The ED50 was calculated by nonlinear fitting with GraphPad Primis5 software.

[2] abbreviates: male ICR mice, single gavage dose 1 h before MK-801 0.3 mg/kg i.p., activity recorded 60 min.

T2 sequence (P14416 whole entry): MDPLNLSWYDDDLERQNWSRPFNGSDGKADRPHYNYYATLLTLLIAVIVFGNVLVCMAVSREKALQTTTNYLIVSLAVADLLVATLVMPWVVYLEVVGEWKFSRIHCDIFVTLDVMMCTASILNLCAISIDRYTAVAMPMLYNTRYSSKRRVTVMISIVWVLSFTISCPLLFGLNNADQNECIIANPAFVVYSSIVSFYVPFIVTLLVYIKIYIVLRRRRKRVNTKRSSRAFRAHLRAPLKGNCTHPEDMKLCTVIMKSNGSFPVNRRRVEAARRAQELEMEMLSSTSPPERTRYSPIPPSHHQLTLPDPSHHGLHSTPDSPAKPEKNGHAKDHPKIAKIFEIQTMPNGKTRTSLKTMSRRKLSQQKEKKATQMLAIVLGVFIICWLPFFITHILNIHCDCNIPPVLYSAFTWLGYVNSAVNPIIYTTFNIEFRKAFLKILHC
T1 sequence (P14416 1-414 isoform P14416-2): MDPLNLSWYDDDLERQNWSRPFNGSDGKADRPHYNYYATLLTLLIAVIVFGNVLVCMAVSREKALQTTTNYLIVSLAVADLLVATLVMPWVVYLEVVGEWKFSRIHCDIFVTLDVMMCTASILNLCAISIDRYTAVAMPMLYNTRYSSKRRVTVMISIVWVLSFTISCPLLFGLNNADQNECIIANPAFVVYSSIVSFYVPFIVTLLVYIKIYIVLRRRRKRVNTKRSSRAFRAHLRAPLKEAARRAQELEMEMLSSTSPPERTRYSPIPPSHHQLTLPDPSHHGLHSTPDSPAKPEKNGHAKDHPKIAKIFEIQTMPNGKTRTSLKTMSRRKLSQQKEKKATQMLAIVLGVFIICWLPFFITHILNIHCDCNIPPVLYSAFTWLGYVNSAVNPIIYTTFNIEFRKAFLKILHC

Turning to `CN1C(=O)CN2c3c1cccc3C1(C)CN(CCCC(=O)c3ccc(F)cc3)CCC21` (stereo not drawn) [Embodiment 1, 8-(4-(4-fluorophenyl)-4-oxobutyl)-3,6b-dimethyl-6b,7,8,9,10,10a-hexahydro-1H-pyrido[3′,4′:4,5]pyrrolo[1,2,3-de]quinoxalin-2(3H)-one], the concentration for half-maximal inhibition (IC50) at D2S receptor is 95.4 nM; at D2L receptor, 20.3 nM. Further, the ED50 in assay [1] turned out to be 0.11 mg/kg. For the same compound, the “MED (lowest effective dose)” value in assay [1] (setting [2]) was 0.1 mg/kg.
Take `CN1C(=O)CN2c3c1cccc3[C@]1(C)CN(CCCC(=O)c3ccc(F)cc3)CC[C@H]21` [Embodiment 1-A, (6bR,10aS)-8-(4-(4-fluorophenyl)-4-oxobutyl)-3,6b-dimethyl-6b,7,8,9,10,10a-hexahydro-1H-pyrido[3′,4′:4,5]pyrrolo [1,2,3-de]quinoxalin-2(3H)-one]: the IC50 on D2S receptor came out at 261 nM. Moreover, the IC50 at D2L receptor was 30.9 nM. Further, in assay [1] (setting [2]), the ED50 was determined as 0.08 mg/kg and the “MED (lowest effective dose)” value is 0.03 mg/kg.
Take `CN1CCN2c3c(cccc31)[C@@H]1CN(CCCC(=O)c3ccc(F)cc3)CC[C@@H]12` [ITI-007, Lumateperone, reference compound]: the IC50 on D2S receptor turned out to be 344 nM. Besides, the half-inhibitory concentration (IC50) on D2L receptor is 131 nM. Also, in assay [1] (setting [2]), the ED50 turned out to be 1.03 mg/kg and the “MED (lowest effective dose)” value came out at 1 mg/kg.
